# How the values were obtained:
# [1] = system: bna7Δ (YKB4649); test: serial dilution spot assay on YPD agar plates; assay type: cell-based, S. cerevisiae; conditions: 10 mM FA, 35 mM 4-HBA or 1 mM CA, 48 hr at 30° C.
# Procedure: In addition, deletion mutants were generated for genes involved in the tryptophan catabolic pathway and their growth was assayed on solid media containing 10 mM ferulic acid. In particular, wild type yeast (BY4741) along with deletion mutants aro8Δ (YKB4799), bna7Δ (YKB4649), bna2Δ (YKB4798), bna6Δ (YKB4844), bna5Δ (YKB4845), bna4Δ (YKB4846) and bna1Δ (YKB4729) were grown to mid log phase ([…] 0.5-0.6) in YPD medium prior to being diluted to an OD600 of 0.1. Four 10-fold serial dilutions were spotted onto YPD agar plates either containing 10 mM ferulic acid or no ferulic acid. Plates were incubated for 48 hr at 30° C. Images of the plates were taken with the ChemiDoc XRS Molecular Imaging system (Biorad) and images are representative of three biological replicates.
# Experiments were also conducted to determine if deletion of BNA7 could provide protection to 4-hydroxybenzoic acid or coniferyl aldehyde (CA). Wild type (BY4741) and bna7A (YKB4649) strains were grown to mid log phase in YPD medium prior to being diluted into fresh medium to an OD600 of 0.1. Four 10-fold serial dilutions were spotted onto YPD agar plates containing either no compound (Untreated), 10 mM ferulic acid (FA), 35 mM 4-hydroxybenzoic acid (4-HBA) or 1 mM coniferyl aldehyde (CA). Plates were incubated for 48 hr at 30° C. and images are representative of three biological replicates.
# [2] = system: wild-type yeast (BY4741); test: ROS measurement by H2DCFDA fluorescence microscopy; assay type: cell-based, S. cerevisiae; conditions: 2 mM CA, 10 mM FA or 50 mM 4-HBA, 1 hour at 30° C.
# Procedure: Measurement of ROS was performed as previously described (Kennedy et al., 2016, Sci Rep. 6, 19332). Briefly cells were incubated with 10 μM 2′,7′-dichlorodihydrofluorescein diacetate (H2DCFDA; Invitrogen cat. #D399) for 15 min in the dark. […] An aliquot of 5 μL was spotted onto glass slides and covered with a cover slip prior to imaging. All images were acquired using a Leica DMI 6000 florescent microscope (Leica Microsystems GmbH, Wetzler Germany), equipped with a Sutter DG4 light source (Sutter Instruments, California, USA), Ludl emission filter wheel with Chroma band pass emission filters (Ludl Electronic Products Ltd., NY, USA) and Hamamatsu Orca AG camera (Hamamatsu Photonics, Herrsching am Ammersee, Germany). Images were acquired at 0.2 μm steps across 6 μm using a 63× oil-immersion objective with a 1.4 numerical aperture. Analysis of H2DCFDA fluorescence was performed using Velocity Software V4 (Perkin Elmer). Image J software was used to quantify the H2DCFDA fluorescence signal in cells as described by Schneider et al (Schneider et al., 2012, Nature Methods, 9, 671-675) with a slight modification. Briefly, background fluorescence was subtracted from the images and the total fluorescence of all the cells in the image was measured and divided by the number of cells in the image. The images contained a minimum of 100 cells. The ratio of fluorescence per cell of treated cultures was divided by that of untreated cultures to eliminate background endogenous ROS production.
# [3] = system: zwf1Δ strains; test: ROS measurement by H2DCFDA fluorescence microscopy; assay type: cell-based, S. cerevisiae; conditions: 2 mM coniferyl aldehyde; ρ=0.012
# Procedure: For all microscopy experiments overnight cultures of wild-type yeast grown at 30° C. were re-suspended at an OD600 of 0.1 in YPD medium and allowed to reach mid-log phase prior to imaging. Measurement of ROS was performed as previously described (Kennedy et al., 2016, Sci Rep. 6, 19332). Briefly cells were incubated with 10 μM 2′,7′-dichlorodihydrofluorescein diacetate (H2DCFDA; Invitrogen cat. #D399) for 15 min in the dark. Cells were washed in sterile PBS to remove traces of the dye after which they were re-suspended in YPD medium alone, or YPD supplemented with either 2 mM coniferyl aldehyde, 10 mM ferulic acid or 50 mM 4-hydroxybenzoic acid or hydrogen peroxide for 1 hour at 30° C. […]
# Analysis of H2DCFDA fluorescence was performed using Velocity Software V4 (Perkin Elmer). Image J software was used to quantify the H2DCFDA fluorescence signal in cells as described by Schneider et al (Schneider et al., 2012, Nature Methods, 9, 671-675) with a slight modification. Briefly, background fluorescence was subtracted from the images and the total fluorescence of all the cells in the image was measured and divided by the number of cells in the image. […] The ratio of fluorescence per cell of treated cultures was divided by that of untreated cultures to eliminate background endogenous ROS production. […]
# [4] = system: wild-type cells expressing PEX3-RFP, SEC13-RFP or CIT1-RFP; test: co-localization of ROS signal with organelle markers; assay type: cell-based, S. cerevisiae
# Text: For co-localization studies, images were obtained as Z-stacks. Co-localization of the fluorescence signals were quantified using the IMARIS software 9.2.1 (Bitplane; http://www.bitplane.com) and a Manders' overlap co-efficient (Manders et al., 1993, Journal of Microscopy. 169, 375-382) was used to evaluate the fraction of RFP pixels (organelle marker) also positive for GFP pixels ([…]). The closer the value is to one, the higher the level of co-localization. The analysis was complemented by performing an object-based quantification where the percentage volume of ROS that localized to the mitochondria and endoplasmic reticulum was measured.
# [5] = system: Saccharomyces cerevisiae ethanol red; conditions: commercial Saccharomyces cerevisiae ethanol red; Adeboye et al., 2014; cited from earlier work
# [6] = 2 mM coniferyl aldehyde, object-based analysis
smiles,measurement,setting,value
"COc1cc(C=CC=O)ccc1O [coniferyl aldehyde, 4-hydroxy-3-methoxycinnamaldehyde]",resistance of bna7Δ / protection by deletion of BNA7,[1],does not provide protection
same,subcellular distribution of induced ROS,[2],formed punctate structures within the cell
same,ROS signal in zwf1Δ compared to wild-type,[3],over two-fold induction
same,"Manders' overlap co-efficient, ROS with ER marker SEC13-RFP",[4]; 2 mM coniferyl aldehyde,0.13±0.1
same,"Manders' overlap co-efficient, ROS with mitochondria marker CIT1-RFP",[4]; 2 mM coniferyl aldehyde,0.45±0.04
same,percentage volume of ROS that localized to the mitochondria,[4]; [6],54.1±17.29%
same,total volume of ROS that localized to the ER,[4]; [6],26.5±12.8%
same,localization of ROS to peroxisomes,"[4]; 2 mM coniferyl aldehyde, peroxisome marker PEX3-RFP",did not localize to the peroxisomes
same,mitochondrial fragmentation,[4]; after 2 hours of coniferyl aldehyde treatment,high degree of mitochondrial fragmentation
same,concentration at which the compound kills the yeast,[5],1 mM

# — patent US11555210B2, “Microbe having increased tolerance to phenolic fermentation inhibitors” (University of Ottawa, priority 2018, dated 2023)
